Measured values: US20120141597A1 (priority 2009, published 2012)

System: Leptosphaeria nodorum (LEPTNO)
Experiment: In vitro fungitoxicity (growth inhibition) in copper-minus and copper-plus liquid medium
Type: cell-based
Details: CuCl2 10 μM, no test compound, copper-plus vs copper-minus medium, across experiments
Procedure: In vitro fungitoxicity assays against Leptosphaeria nodorum (LEPTNO) were conducted using the liquid growth medium described by Coursen and Sisler (American Journal of Botany 1960, 47, 541-549) except that copper micronutrient, normally included as CuSO4, was omitted. The medium, termed “copper-minus”, was prepared by dissolving 10 g glucose, 1.5 g K2HPO4, 2 g KH2PO4 and 1 g (NH4)2SO4 in 1 liter of deionized water and treating the solution with 0.5 g Chelex 100 resin (Bio-Rad Analytical grade, 50-100 mesh, sodium form, cat#142-2822) by stirring at room temperature for 1 h. MgSO4.7H2O (0.5 g) was added, and stirring was continued for a further hour. Trace elements (minus CuSO4), and vitamins described by Coursen and Sisler were added from concentrated stock solutions and the entire medium was sterilized by filtration. […]
LEPTNO was grown on potato dextrose agar in 9 cm diameter petri dishes for 7 days. […] The spores were resuspended in copper-minus medium, and the suspension adjusted to 2×10^5 spores per mL Microtiter plates were inoculated with 100 μL of this spore suspension and the plates incubated at 25° C. for 72 h before assessing fungal growth by measuring light scattering in a NepheloStar plate reader. Growth inhibition was determined by comparing growth in the presence of test compound with growth in control wells lacking test compound. […]

O.O.[Cl][Cu][Cl] [CuCl2, CuCl2.2H2O] was tested, and the “LEPTNO % Inhn. attributed to copper chloride alone” value was 7.1 ± 6.0%.
